What all share (assay): growth of human tumour cells (NCI), 48 h
Experiment [1] relates to COLO 205 colon.
Experiment [2] has as its system DU-145 prostate.
The test system of experiment [3] is HCT-116 colon.
Experiment [4] relates to HT29 colon.
Experiment [5] deals with OVCAR-4 ovarian.
Experiment [6] deals with PC-3 prostate.
The subject of experiment [7] is SK-MEL-2 melanoma.
Experiment [8] relates to SK-MEL-5 melanoma.
In experiment [9] the test system is SN12C renal.
In experiment [10] the test system is SNB-19 CNS.
The test system of experiment [11] is SW-620 colon.
Experiment [12] has as its system UACC-62 melanoma.
Experiment [13] concerns UO-31 renal.

Each structure is given as a SMILES string.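 Protocol summary: plate cells (96-well), add compound at 5 concentrations, incubate 48 h, interpolate endpoints linearly. TGI is the concentration that stops growth completely.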 A value given as a limit tells only on which side of the number the result lay.

Consider `CCC(C)C1=C(O)[N+]2([O-])Oc3ccc(-c4c(O)c(O)c(-c5ccc(O)cc5)c(OC(C)=O)c4OC(C)=O)cc3OC2(C(C)CC)C(=O)N1O` (configuration not stated), for which the TGI in experiment [1], in experiment [2], in experiment [3], in [4], in [5] and in experiment [6] was over 50 µM throughout. The TGI in experiment [7], in [8], in experiment [9], in experiment [10], in experiment [11] and in experiment [12] was over 50 µM in each case. In experiment [13], this molecule had a TGI of over 50 µM.
`CCOc1cc(NC(C)=O)ccc1C(=O)NN1C(=O)C(Cl)C1c1ccc(O)c(OC)c1` (configuration not stated): the TGI was 35.1 µM in experiment [1]; 29 µM in experiment [2]; 37.7 µM in experiment [3]; 31.9 µM in experiment [4]; 31.6 µM in [5]; 28.3 µM in [6]. Further, the TGI in experiment [7] stood at 33.5 µM; in experiment [8], 22.8 µM; in experiment [9], 31 µM; in experiment [10] it was 29.5 µM; in [11] it was 60.1 µM; in [12], 25.5 µM. For the same molecule, the TGI in [13] is 11.1 µM.
Take `CCOC(=O)C(C)c1nc2cc(F)c(N3CCOCC3)cc2[nH]c1=O` (configuration not stated): the TGI in [1], in [2], in [3], in experiment [4], in experiment [5] and in experiment [6] was over 100 µM each time. Further, the TGI in experiment [7], in [8], in experiment [9], in [10], in experiment [11] and in [12] was over 100 µM in each case. Besides, in [13], the TGI was over 100 µM.
As for `O=S(=O)(O)c1cc(S(=O)(=O)O)c2c(N=Nc3ccccc3)c(O)ccc2c1`, the TGI in experiment [1], in experiment [2], in experiment [3], in experiment [4], in experiment [5] and in experiment [6] was over 100 µM in each case. In addition, the TGI in [7], in experiment [8], in experiment [9], in [10], in experiment [11] and in experiment [12] was over 100 µM throughout. In experiment [13], this molecule came in with a TGI of over 100 µM.
As for `COc1ccc(/C=C/C(=O)c2cccc(C(=O)/C=C/c3ccc(OC)c(OC)c3)n2)cc1OC`, the TGI in experiment [1] is over 100 µM; in [2] it was over 100 µM; in [3], 27.6 µM; in experiment [4] it was 31.6 µM; in experiment [5], over 100 µM; in experiment [6] it was over 100 µM. Besides, the TGI is over 100 µM in [7]; over 100 µM in [8]; 30.1 µM in experiment [9]; 99.1 µM in experiment [10]; 15.9 µM in experiment [11]; over 57.4 µM in experiment [12]. In [13], this molecule registered a TGI of 43.4 µM.
As for `NS(=O)(=O)c1ccc(NC(=S)/N=C/c2c(O)c3ccccc3[nH]c2=O)cc1`, the TGI in experiment [1], in experiment [2], in experiment [3], in experiment [4], in experiment [5] and in experiment [6] was over 100 µM in each case. For the same molecule, the TGI in experiment [7], in [8], in experiment [9], in [10], in experiment [11] and in experiment [12] was over 100 µM each time. In [13], this molecule yielded a TGI of over 100 µM.
Turning to `CCCCn1c(C)c(C)c2c1NN=C(C#N)S2(=O)=O`, the TGI in [1], in [2], in experiment [3], in experiment [4], in experiment [5] and in [6] was over 100 µM throughout. The TGI in [7], in experiment [8], in experiment [9], in [10], in experiment [11] and in experiment [12] was over 100 µM each time. In [13], this molecule registered a TGI of over 100 µM.
Turning to `O=S(=O)(O)c1cccc2ccc(O)c(N=Nc3ccc(S(=O)(=O)c4ccc(N=Nc5c(O)ccc6cccc(S(=O)(=O)O)c56)cc4)cc3)c12`, the TGI in experiment [1], in experiment [2], in experiment [3], in experiment [4], in experiment [5] and in experiment [6] was over 100 µM each time. Also, the TGI in [7], in experiment [8], in [9], in experiment [10], in experiment [11] and in [12] was over 100 µM throughout. In experiment [13], this molecule displayed a TGI of over 100 µM.
As to `O=C1c2scc(-c3ccc(F)cc3)c2-n2cccc21`, the TGI in [1], in experiment [2], in experiment [3], in experiment [4], in [5] and in experiment [6] was over 100 µM each time. The TGI in experiment [7] is over 100 µM; in experiment [8], over 100 µM; in experiment [9], 87.9 µM; in experiment [10], over 100 µM; in [11], over 100 µM; in experiment [12], over 100 µM. Also, the TGI in experiment [13] was over 100 µM.
Turning to `O=c1oc2ccccc2cc1-c1nc2ccccc2c(=O)[nH]1`, the TGI in [1], in [2], in experiment [3], in experiment [4], in [5] and in experiment [6] was over 100 µM throughout. Besides, the TGI in [7], in [8], in experiment [9], in [10], in [11] and in experiment [12] was over 100 µM each time. In addition, the TGI in experiment [13] was over 100 µM.
As to `COc1ccc(OC)c2sc(N3C(=O)/C(=C/c4ccc(N(C)C)cc4)N=C3c3ccccc3)nc12`, the TGI in experiment [1] was over 100 µM; in experiment [2], over 100 µM; in experiment [3], over 100 µM; in experiment [4], over 100 µM; in experiment [5] it was over 100 µM; in experiment [6], 81.2 µM. For the same molecule, the TGI in experiment [7], in experiment [8], in [9], in experiment [10], in experiment [11] and in experiment [12] was over 100 µM throughout. The molecule also showed a TGI in experiment [13] of over 100 µM.
For the molecule `COc1ccc2c(c1OC)C(Br)CCC(Br)(Br)C2=O` (configuration not stated), the TGI in experiment [1] was found to be 10.1 µM; in [2], 24.9 µM; in experiment [3] it was 17.3 µM; in experiment [4], 17.6 µM; in experiment [5], 18.9 µM; in experiment [6], 24.2 µM. For the same molecule, the TGI in [7] is 28 µM; in experiment [8], 14.7 µM; in experiment [9], 16.7 µM; in experiment [10], 28.9 µM; in experiment [11], 6.61 µM; in experiment [12], 27.7 µM. The TGI in experiment [13] turned out to be 14 µM.
As to `COc1ccc(-c2cc(-c3ccccc3)c3c(n2)-c2ccccc2NC(=O)C3)cc1`, the TGI in experiment [1], in experiment [2], in [3], in experiment [4], in experiment [5] and in [6] was over 100 µM each time. Also, the TGI in [7], in [8], in experiment [9], in experiment [10], in experiment [11] and in [12] was over 100 µM throughout. In addition, the TGI in experiment [13] is over 100 µM.
With `Clc1ccccc1-c1nn2c(CCCCCCCCc3nnc4sc(-c5ccccc5Cl)nn34)nnc2s1`, the TGI in experiment [1], in [2], in experiment [3], in experiment [4], in experiment [5] and in [6] was over 100 µM throughout. Besides, the TGI in [7], in experiment [8], in [9], in experiment [10], in [11] and in experiment [12] was over 100 µM throughout. The TGI in experiment [13] was over 100 µM.
As for `Cc1cccc(/C=N/NC(=S)NC2CCCCC2)n1`, the TGI was over 100 µM in [1]; over 100 µM in experiment [2]; 19.4 µM in experiment [3]; 42.1 µM in experiment [4]; over 100 µM in experiment [5]; over 100 µM in experiment [6]. Moreover, the TGI was over 100 µM in experiment [7]; over 100 µM in experiment [8]; over 100 µM in experiment [9]; over 100 µM in experiment [10]; over 100 µM in [11]; 59.2 µM in experiment [12]. This molecule also had a TGI in experiment [13] of over 89.5 µM.
On to `C[C@@H]1C(=O)O[C@@H]2C[C@@]1(C)[C@@H]1C(=O)C3(O)OC14C2(C)OC(=O)[C@@]4(O)CCC1C3C(O)C=C2CC=CC(=O)[C@@]21C` (some centres not stated), for which the TGI in experiment [1] was over 100 µM; in [2], over 100 µM; in experiment [3], 48.2 µM; in [4] it was 91 µM; in [5] it was over 100 µM; in experiment [6], over 100 µM. Also, the TGI in [7] is 62.9 µM; in experiment [8], over 100 µM; in experiment [9], over 100 µM; in experiment [10], 37.8 µM; in experiment [11], over 100 µM; in experiment [12], over 100 µM. This molecule yielded a TGI in [13] of 87.9 µM.
Take `CC(C)(C)c1cc(C(C)(C)C)c(P=C(Cl)Cl)c(C(C)(C)C)c1` (configuration not stated): the TGI in [1], in experiment [2], in experiment [3], in experiment [4], in experiment [5] and in experiment [6] was over 100 µM throughout. For the same molecule, the TGI in experiment [7], in [8], in experiment [9], in [10], in experiment [11] and in experiment [12] was over 100 µM each time. For the same molecule, the TGI in [13] is over 100 µM.
Regarding `CC(=O)O[C@H]1CC[C@@]2(C)C(=CC[C@H]3[C@@H]4C[C@H](N5CCN(C)CC5)[C@H](OC(C)=O)[C@@]4(C)CC[C@@H]32)C1`, the TGI is 32.8 µM in experiment [1]; over 100 µM in [2]; 25.7 µM in experiment [3]; 12.8 µM in [4]; 32.6 µM in experiment [5]; 32.5 µM in experiment [6]. Moreover, the TGI in [7] came to 33.3 µM; in [8] it was 12.5 µM; in experiment [9], 67.8 µM; in [10], 58.9 µM; in experiment [11], 29.8 µM; in experiment [12], 26.4 µM. In experiment [13], this molecule registered a TGI of over 90.9 µM.
On to `COC(=O)/C=C/COCC1C2CCC(=O)C21` (configuration not stated), for which the TGI in [1], in experiment [2], in experiment [3], in [4], in [5] and in experiment [6] was over 100 µM in each case. In addition, the TGI in [7], in experiment [8], in experiment [9], in [10], in [11] and in experiment [12] was over 100 µM each time. Also, in experiment [13], the TGI was over 100 µM.

Values taken from PubChem BioAssay (NCI).
